{
  "source": "patent US6929949B1",
  "about": "“Corona ion generating method and apparatus for the manipulation of molecules and biological cells” (University of South Florida, priority 2002, dated 2005)",
  "tested_on": "human A204 sarcoma cells",
  "test": "Corona charge facilitated uptake of calcein by cells in culture (fluorescence microscopy)",
  "format": "cell-based",
  "settings": "for % FLOURESCENT (percentage of fluorescing cells): 10 μM calcein in PBS, visually estimated",
  "experimental": "Referring initially to FIG. 2, the present invention has been used experimentally to facilitate the uptake of calcein by cells in culture. The experimental apparatus is shown as in FIG. 2. 35 mm diameter cell culture plates 4 were seeded with 0.5×10^6 human A204 sarcoma cells 5 approximately 24 hours prior to the experiment to allow time for the cells to attach to the growth surface on the bottom of each dish. Immediately prior to treating the cells with corona charge in air, the growth media was aspirated. Then 500 ÂμI of 10 ÂμM Calcein 6, in phosphate buffered saline 7; was introduced onto the bottom of the plate. Calcein molecules in the phosphate buffered saline are shown in the figure as a negatively charged species. The liquid was distributed over the entire growth surface. […] Corona charge 10 was deposited onto the samples in the presence of calcein for a range of times from 0 minutes to 10 minutes. The solution of calcein was allowed to remain in contact with each sample for a period of 10 minutes after corona exposure. Additionally, a positive or negative bias potential 11 can be applied to the sample. Each plate was then washed with two separate 1 ml aliquots of phosphate buffered saline to remove extracellular calcein. Finally, a 1 ml aliquot of phosphate buffered saline was pipetted into each sample plate. Samples were viewed with florescent microscopy to visually confirm the entry of the nonpermanent calcein resulting from corona charge exposure. The percentage of fluorescing cells was visually estimated based upon the total number of cells in the plates. The table shown below indicates the resulting percentages of fluorescing cells in each sample.",
  "data": [
    {"smiles": "O=C(O)CN(CC(=O)O)Cc1cc2c(cc1O)Oc1cc(O)c(CN(CC(=O)O)CC(=O)O)cc1C21OC(=O)c2ccccc21", "note": "[calcein, Calcein]", "values": [
      {"measurement": "entry of calcein into the cells", "setting": "absence of corona exposure (sample 6)", "result": "did not result in the entry of calcein into the cells"},
      {"measurement": "% FLOURESCENT (percentage of fluorescing cells)", "setting": "corona exposure time 0 minutes (no corona exposure)", "result": 0, "unit": "%"},
      {"measurement": "% FLOURESCENT (percentage of fluorescing cells)", "setting": "corona exposure time 2 minutes, positive corona, wire at 6000 V, 2.5 cm away", "result": "Less than 1%"},
      {"measurement": "% FLOURESCENT (percentage of fluorescing cells)", "setting": "corona exposure time 4 minutes, positive corona, wire at 6000 V, 2.5 cm away", "result": 15, "unit": "%"},
      {"measurement": "% FLOURESCENT (percentage of fluorescing cells)", "setting": "corona exposure time 6 minutes, positive corona, wire at 6000 V, 2.5 cm away", "result": 20, "unit": "%"},
      {"measurement": "% FLOURESCENT (percentage of fluorescing cells)", "setting": "corona exposure time 8 minutes, positive corona, wire at 6000 V, 2.5 cm away", "result": 30, "unit": "%"},
      {"measurement": "% FLOURESCENT (percentage of fluorescing cells)", "setting": "corona exposure time 10 minutes, positive corona, wire at 6000 V, 2.5 cm away", "result": 80, "unit": "%"}
    ]}
  ]
}
